Among the data in patent US6730669B2, “Amino acid hydroxyethylamino sulfonamide retroviral protease inhibitors” (G. D. Searle & Co., priority 1995, dated 2004) are IC50 and EC50 values, retold here.

Structures are written as SMILES. pEC50, pIC50: −log10 of the molar value.

One assay concerns the target T1, HIV protease (Human immunodeficiency virus type 1 group M subtype B, UniProt P04585).
T1 construct: HIV protease is diluted in the assay buffer to a final enzyme concentration of 12.3 nanomolar, based on a molecular weight of 10,780
Description: HIV protease enzyme assay (fluorescence, substrate 2-Ile-Nle-Phe(p-NO2)-Gln-ArgNH2). In kind it is biochemical. The settings on record: 12.3 nanomolar enzyme, pH 6.4. The protocol:
The compounds of the present invention are effective HIV protease inhibitors. Utilizing an enzyme assay as described below, the compounds set forth in the examples herein disclosed inhibited the HIV enzyme. […] The enzyme method is described below. The substrate is 2-Ile-Nle-Phe(p-NO2)-Gln-ArgNH2. The positive control is MVT-101 (Miller, M. et al, Science, 246, 1149 (1989)] The assay conditions are as follows:
20 mM sodium phosphate, pH 6.4
The above described substrate is dissolved in DMSO, then diluted 10 fold in assay buffer. Final substrate concentration in the assay is 80 μM. HIV protease is diluted in the assay buffer to a final enzyme concentration of 12.3 nanomolar, based on a molecular weight of 10,780.
The final concentration of DMSO is 14% and the final concentration of glycerol is 18%. The test compound is dissolved in DMSO and diluted in DMSO to 10× the test concentration; 10 μl of the enzyme preparation is added, the materials mixed and then the mixture is incubated at ambient temperature for 15 minutes. The enzyme reaction is initiated by the addition of 40 μl of substrate. The increase in fluorescence is monitored at 4 time points (0, 8, 16 and 24 minutes) at ambient temperature. Each assay is carried out in duplicate wells.

Another assay has as its system HIV-1. Description: CEM cell assay: HIV inhibition assay of acutely infected cells (tetrazolium based colorimetric, MTT). The settings on record: Human immunodeficiency virus 1, CCRF-CEM, 168 h; Table 21; CEM cells acutely infected with HIV-1, 7 days, MTT readout. On the procedure: The effectiveness of various compounds were determined in the above-described enzyme assay and in a CEM cell assay. The HIV inhibition assay method of acutely infected cells is an automated tetrazolium based colorimetric assay essentially that reported by Pauwles et al, J. Virol. Methods, 20, 309-321 (1988). Assays were performed in 96-well tissue culture plates. CEM cells, a CD4+cell line, were grown in RPMI-1640 medium (Gibco) supplemented with a 10% fetal calf serum and were then treated with polybrene (2 μg/ml). An 80 μl volume of medium containing 1×10^4 cells was dispensed into each well of the tissue culture plate. To each well was added a 100 μl volume of test compound dissolved in tissue culture medium (or medium without test compound as a control) to achieve the desired final concentration and the cells were incubated at 37° C. for 1 hour. A frozen culture of HIV-1 was diluted in culture medium to a concentration of 5×10^4 TCID50 per ml (TCID50=the dose of virus that infects 50% of cells in tissue culture), and a 20 μL volume of the virus sample (containing 1000 TCID50 of virus) was added to wells containing test compound and to wells containing only medium (infected control cells). Several wells received culture medium without virus (uninfected control cells). Likewise, the intrinsic toxicity of the test compound was determined by adding medium without virus to several wells containing test compound. In summary, the tissue culture plates contained the following experiments:
In experiments 2 and 4 the final concentrations of test compounds were 1, 10, 100 and 500 μg/ml. Either azidothymidine (AZT) or dideoxyinosine (ddI) was included as a positive drug control. […] DMSO was added to all control wells at an appropriate concentration.
Following the addition of virus, cells were incubated at 37° C. in a humidified, 5% CO2 atmosphere for 7 days. Test compounds could be added on days 0, 2 and 5 if desired. On day 7, post-infection, the cells in each well were resuspended and a 100 μl sample of each cell suspension was removed for assay. A 20 μL volume of a 5 mg/ml solution of 3-(4,5-dimethylthiazol-2-yl)-2,5-diphenyltetrazolium bromide (MTT) was added to each […] cell suspension, and the cells were incubated for 4 hours at […] in a 5% CO2 environment. […] To each sample was added 100 μl of 10% sodium dodecylsulfate in 0.01 N HCl to lyse the cells, and samples were incubated overnight. The absorbance at 590 nm was determined for each sample using a Molecular Devices microplate reader. Absorbance values for each set of wells is compared to assess viral control infection, uninfected control cell response as well as test compound by cytotoxicity and antiviral efficacy.

For `CC(C)CN(C[C@@H](O)[C@H](Cc1ccccc1)NC(=O)[C@@H](NC(=O)CN1CCCC1)C(C)(C)C)S(=O)(=O)c1ccc2c(c1)OCO2` [Entry 1], on HIV protease (Table 21, 80 μM substrate), the pIC50 is 8.52. Besides, the pEC50 with HIV-1 is 8.15.

For the compound `CCC(C)[C@H](NC(=O)CN1CCCC1)C(=O)N[C@@H](Cc1ccccc1)[C@H](O)CN(CC(C)C)S(=O)(=O)c1ccccc1` (stereo partly shown) [Entry 1], the pIC50 at HIV protease (Table 20, 80 μM substrate) is 8.40.

Turning to `CCC(C)[C@H](NC(=O)CN1CCCC1)C(=O)N[C@@H](Cc1ccccc1)[C@H](O)CN(CC(C)C)S(=O)(=O)c1ccc2c(c1)CCO2` (stereo partly shown) [Entry 2], at HIV protease (Table 20, 80 μM substrate), the pIC50 is 8.70. Compared with the last compound, the pIC50 is 0.30 log units higher.

Compound `CCC(C)[C@H](NC(=O)CN1CCCC1)C(=O)N[C@@H](Cc1ccccc1)[C@H](O)CN(CC(C)C)S(=O)(=O)c1ccc2c(c1)OCO2` (stereo partly shown) [Entry 2] had a pIC50 against HIV protease (Table 21, 80 μM substrate) of 8.52. The compound also showed a pEC50 with HIV-1 of 7.92.

Take `CC(C)CN(C[C@@H](O)[C@H](Cc1ccccc1)NC(=O)[C@H](CS(C)(=O)=O)NC(=O)CN1CCCC1)S(=O)(=O)c1ccc2c(c1)OCO2` [Entry 3]: the pIC50 at HIV protease (Table 21, 80 μM substrate) was 8.10. The same compound gave a pEC50 in the assay with HIV-1 of 6.92.

Regarding `CC(C)CN(C[C@@H](O)[C@H](Cc1ccccc1)NC(=O)[C@@H](NC(=O)CN1CCCC1)C(C)(C)C)S(=O)(=O)c1ccccc1` [Entry 4], on HIV protease (Table 21, 80 μM substrate), the pIC50 was 8.40. Moreover, the pEC50 with HIV-1 is 7.92.

`COc1ccc(S(=O)(=O)N(CC(C)C)C[C@@H](O)[C@H](Cc2ccccc2)NC(=O)[C@@H](NC(=O)CN2CCCC2)C(C)(C)C)cc1` [Entry 5] had a pIC50 against HIV protease (Table 21, 80 μM substrate) of 8.52. The pEC50 in the assay with HIV-1 was 8.30.

In turn, `CC(C)CN(C[C@@H](O)[C@H](Cc1ccccc1)NC(=O)[C@@H](NC(=O)CN1CCCC1)C(C)C)S(=O)(=O)c1ccc2c(c1)OCO2` [Entry 6] showed a pIC50 against HIV protease (Table 21, 80 μM substrate) of 8.52. The same compound showed a pEC50 in the assay on HIV-1 of 8.22.

With `COC(=O)Nc1nc2cc(S(=O)(=O)N(CC(C)C)C[C@@H](O)[C@H](Cc3ccccc3)NC(=O)[C@@H](NC(=O)CN3CCCC3)C(C)(C)C)ccc2[nH]1` [Entry 7], the pIC50 on HIV protease (Table 21, 80 μM substrate) is 8.70. This compound had a pEC50 with HIV-1 of 7.54.

Turning to `CC(C)CN(C[C@@H](O)[C@H](Cc1ccccc1)NC(=O)[C@@H](NC(=O)CN1CCCC1)C(C)(C)C)S(=O)(=O)c1ccc2ncsc2c1` [Entry 8], at HIV protease (Table 21, 80 μM substrate), the pIC50 is 8.52. This compound also gave a pEC50 in the assay on HIV-1 of 7.80.

As for `CCC(C)[C@H](NC(=O)CN1CCCC1)C(=O)N[C@@H](Cc1ccccc1)[C@H](O)CN(CC(C)C)S(=O)(=O)c1ccc(OC)cc1` (stereo partly shown) [Entry 9], the pIC50 on HIV protease (Table 21, 80 μM substrate) was 8.52. In addition, the pEC50 with HIV-1 was 7.80.

Consider `CC(C)CN(C[C@@H](O)[C@H](Cc1ccccc1)NC(=O)[C@@H](NC(=O)CN1CCCC1)C(C)(C)S(C)(=O)=O)S(=O)(=O)c1ccc2c(c1)OCO2` [Entry 10], for which the pIC50 against HIV protease (Table 21, 80 μM substrate) is 8.40. The pEC50 in the assay with HIV-1 was 7.41.

Compound `CC(C)CN(C[C@@H](O)[C@H](Cc1ccccc1)NC(=O)[C@@H](NC(=O)CN1CCCC1)C(C)(C)C)S(=O)(=O)c1ccc2c(c1)CCO2` [Entry 11] showed a pIC50 against HIV protease (Table 21, 80 μM substrate) of 8.40. This compound also showed a pEC50 in the assay with HIV-1 of 7.68.

`C#CC[C@H](NC(=O)CN1CCCC1)C(=O)N[C@@H](Cc1ccccc1)[C@H](O)CN(CC(C)C)S(=O)(=O)c1ccc2c(c1)OCO2` [Entry 12] had a pIC50 against HIV protease (Table 21, 80 μM substrate) of 8.70. Besides, the pEC50 in the assay with HIV-1 is 7.96.

`COc1ccc(S(=O)(=O)N(CC(C)C)C[C@@H](O)[C@H](Cc2ccccc2)NC(=O)[C@@H](NC(=O)CN2CCCC2)C(C)C)cc1` [Entry 13] gave a pIC50 against HIV protease (Table 21, 80 μM substrate) of 8.52. The compound further showed a negative logarithm of the EC50 (pEC50) with HIV-1 of 7.74.

One may read the pIC50 as the IC50 on a negative log10 scale, so that one unit is a factor of ten. In general, pEC50 refers to the EC50 on a negative log10 scale, so that one unit is a factor of ten. A low value points to a large EC50.
